Data: patent US12281329B2, “Compositions and methods for immune cell modulation in adoptive immunotherapies” (Fate Therapeutics, Inc., priority 2016, dated 2025)

Experiments:
HER2+ SKOV3 cells = assay: NK cell killing and Herceptin ADCC of SKOV3 cells; type: cell-based, human
Experimental: NK Cell Cytotoxicity Assay: Cytotoxicity was determined using a flow cytometry based method based on a previously published method (Kim, et al. J Immunol Methods. 2007 Aug. 31; 325(1-2): 51-66). NK cells were co-cultured with e450-proliferation dye-labelled targets for 4 hours. CellEvent™ Caspase-3/7 Green Flow Cytometry Assay Kit (Lifer Technologies) was used to assay for cell death among target cells, and samples were read on a BD LSRFortessa cytometer. Killing of SKOV-3 targets was quantified using the Incucyte Zoom instrument. SKOV-3 cells were transiently transduced with NucLight-Red BacMam reagent (Essen Biosciences) and co-cultured with the indicated NK cell populations for 74 hours, with images taken on two hour intervals. Caspase 3/7 activity was monitored to indicate target cells undergoing apoptosis using the CellEvent™ Caspase-3/7 Green Detection Reagent. The number of target cells was normalized to SKOV-3 cells cultured alone, and targets undergoing apoptosis were quantified based on caspase 3/7 activity.
In a similar fashion, SKOV3 cells were treated with NK cells derived from overnight culture with IL15, 7 day culture with IL15 and 7 day culture with IL15 and GSK3i. […]

HER2+A549 cells = assay: NK cell Herceptin ADCC killing of A549 cells; type: cell-based, human; details: NK cells cultured with GSK3i for 7 days
NK cells [1] = assay: NK cell intracellular cytokine staining after IL-12+IL-18 or K562 stimulation; type: cell-based, human; details: 7 days 10 ng/ml IL-15 + 5 uM CHIR99021; 4-hour IL12+IL18 or K562 stimulation; vs primed or 7 day IL15 only
Experimental: NK Cell Intracellular Cytokine Staining: CD3/CD9 depleted PBMC were cultured for 7 days with 10 ng/ml IL-15 and 5 uM CHIR99021 or vehicle control. On culture day 7 cells were washed and cultured separately with IL-12 and IL-18 (long/ml and 50 ng/ml, respectively) (Life Technologies) or with K562 cells at a 1:1 ratio. Golgistop (BD Biosciences) was included in the culture media to facilitate intracellular detection of cytokines. After a 4 hour culture period, cells were stained for cell surface antigens and fixed prior to intracellular staining with antibodies to IFN-gamma and TNF-alpha (BD Biosciences). Staining was performed using the BD Cytofix/Cytoperm™ Kit according to the manufacturer's instructions.
Also analyzed was the effect of GSK3 inhibitor treatment to NK cell cytokine response. PBMC obtained directly from donors were cultured after CD3/CD9 depletion for 7 days with 10 ng/ml IL-15 and 5 uM CHIR99021, or with IL15 only. On day 7, cells were washed and cultured separately with IL-12 (long/ml) and IL-18 (50 ng/ml), or with K562 cells at a 1:1 ratio for stimulation. After a 4-hour culture period, cells were stained for cell surface antigens and fixed prior to intracellular staining with antibodies to IFNγ and TNFα, respectively.

NK cells [2] = assay: Maintenance of modulated NK cell phenotype after transfer into NSG mice; type: in vivo
Experimental: The mice received only IL-15 with no GSK3i. It was shown that NK cells cultured in vitro with GSK3i for 7 days maintain their phenotypic changes in vivo for at least one week after being transferred and without the presence of the small molecule. CD57 remains high representing the maturity of the NK cells which was not the case when the cells were cultured without GSK3i (FIGS. 9A and 9B).

SKOV-3 cells = assay: In vivo tumor clearing of luciferase-expressing SKOV-3 cells by modulated NK cells with Herceptin; parameters: species or system NSG mice
Source text: In vivo tumor clearing using Modulated NK cells: NSG mice were irradiated with 300 rads one day prior to intraperitoneal transplant of 2×10^5 luciferase-expressing SKOV-3 cells. 5 days after transplant of the ovarian carcinoma cells, mice were either left untreated, treated with Herceptin only, or treated with Herceptin, IL-15, and NK cells cultured for 7 days with IL-15 and CHIR99021. Luciferase-expressing SKOV-3 cells were imaged on day 21 using the IVIS imaging system.
Moreover, the in vivo tumor clearance ability of GSK3i cultured NK cells using the process provided herein was also tested. NSG mice were irradiated with 300 rads one day prior to intraperitoneal transplant of luciferase-expressing SKOV-3 cells. 5 days after the ovarian carcinoma cell transplant, the mice were either left untreated, treated with Herceptin only, or treated with Herceptin, IL-15, and NK cells cultured for 7 days with IL-15 and CHIR99021. […]
The in vivo tumor clearance ability of GSK3i cultured NK cells using the process provided herein was then compared to overnight primed CD3/CD19 depleted PBMC, and CD3/CD19 depleted PBMC cultured for 7 days with IL-15 and DMSO. […] Luciferase-expressing SKOV-3 cells were quantified by measuring luciferase activity using the IVIS imaging system.

[3] = tested on: K562 tumor cells and allogeneic PBMC; assay: Dual-target cytotoxicity assay, K562 tumor cells mixed with allogeneic PBMC; type: cell-based, human; details: GSK3i modulated NK cells; 3-4 NK cell donors per PBMC donor
Experimental: Cytotoxicity of GSK3i modulated NK cells against allogeneic PBMC was evaluated in combination with K562 tumor cells in a dual-target cytotoxicity assay. Percent specific killing in PBMC+K562+overnight primed NK cells or PBMC+K562+GSK3i modulated NK cells was measured.

SMILES: Cc1c[nH]c(-c2cnc(NCCNc3ccc(C#N)cn3)nc2-c2ccc(Cl)cc2Cl)n1 [CHIR99021]
- killing of SKOV3 cells (killing rate and killing efficiency; elimination, caspase 3/7 peak) (HER2+ SKOV3 cells; 7 day IL15 + GSK3i vs overnight IL15 and 7 day IL15): most effective
- ADCC killing of SKOV3 with HER2 antibody (Herceptin) (HER2+ SKOV3 cells; NK cells 7 days IL15 + GSK3i vs overnight IL15 and 7 day IL15): enhanced
- ADCC-mediated killing of A549 cells (rate and efficiency) (HER2+A549 cells): enhanced
- IFNγ production in NK cells (NK cells [1]): enhanced
- TNFα production in NK cells (NK cells [1]): enhanced
- CD57 on NK cells from peripheral blood (NK cells [2]; 7 days after transfer of 7 day IL15+GSK3i cultured NK cells, mice received only IL-15): remains high
- CD16 and NKG2C+/CD57+ on transferred NK cells (NK cells [2]; 7 days after transfer, without small molecule): maintained in vivo
- in vivo SKOV-3 ADCC killing (luciferase activity) (SKOV-3 cells; 100 ug Herceptin + 2.5×10^6 cells, vs overnight primed and 7 day IL-15 + DMSO): highly and consistently effective
- tumor-suppressive effects of Herceptin antibody treatment (SKOV-3 cells; NK cells cultured 7 days with IL-15 and CHIR99021, plus Herceptin and IL-15, imaged Day 21 post-transplant): enhances
- percent specific killing of K562 versus allogeneic PBMC [3]: selectively target those cells among normal cells
